Experimental data from paper PMC7719162, “Positioning of an unprecedented spiro[5.5]undeca ring system into kinase inhibitor space” (Scientific Reports, 2020).
Like-named read-outs stand apart in the source and are kept apart here.

Tests used:
[1] = molecular target: T1, TRKA (Homo sapiens, UniProt P04629); details: cited from earlier work
T1 construct: purchased Reaction Biology Corp

[2] = molecular target: T2, PI3K (p110a(H1047R)/p85a) (Homo sapiens, UniProt P42336, H1047R); assay: Kinase panel assay (lipid kinase); type: biochemical; details: 30 μM compound, ATP 10 μM, duplicates Data 1/Data 2
T2 construct: purchased Reaction Biology Corp

[3] = molecular target: T3, PI3Kd (p110d/p85a) (Homo sapiens, UniProt O00329); assay: Kinase panel assay (lipid kinase); type: biochemical; details: 30 μM compound, ATP 10 μM, duplicates Data 1/Data 2
T3 construct: purchased Reaction Biology Corp

[4] = molecular target: T4, Haspin (Homo sapiens, UniProt Q8TF76); assay: Kinase panel assay (radiolabelled); type: biochemical; details: ATP 10 μM
T4 construct: purchased Reaction Biology Corp
T4 sequence (Q8TF76 1-798): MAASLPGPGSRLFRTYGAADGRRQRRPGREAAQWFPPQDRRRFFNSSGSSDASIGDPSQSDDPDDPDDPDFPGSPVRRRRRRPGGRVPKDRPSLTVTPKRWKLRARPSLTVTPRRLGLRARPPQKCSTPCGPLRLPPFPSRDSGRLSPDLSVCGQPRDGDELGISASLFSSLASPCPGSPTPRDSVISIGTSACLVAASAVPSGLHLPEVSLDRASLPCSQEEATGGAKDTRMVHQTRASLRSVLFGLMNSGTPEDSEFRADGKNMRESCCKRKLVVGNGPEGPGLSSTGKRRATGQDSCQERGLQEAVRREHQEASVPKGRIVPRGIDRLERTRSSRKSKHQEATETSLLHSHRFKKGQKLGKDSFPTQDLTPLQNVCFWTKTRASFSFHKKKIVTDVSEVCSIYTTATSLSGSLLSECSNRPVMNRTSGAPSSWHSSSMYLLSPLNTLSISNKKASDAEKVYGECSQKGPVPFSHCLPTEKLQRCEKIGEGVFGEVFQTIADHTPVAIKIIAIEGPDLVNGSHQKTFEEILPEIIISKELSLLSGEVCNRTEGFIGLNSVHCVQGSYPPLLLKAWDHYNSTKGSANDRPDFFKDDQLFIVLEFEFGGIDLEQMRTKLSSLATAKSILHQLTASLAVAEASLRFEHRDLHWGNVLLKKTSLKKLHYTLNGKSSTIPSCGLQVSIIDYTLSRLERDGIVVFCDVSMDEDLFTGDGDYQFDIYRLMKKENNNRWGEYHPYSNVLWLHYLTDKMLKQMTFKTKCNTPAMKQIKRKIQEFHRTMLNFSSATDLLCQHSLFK

[5] = molecular target: T5, AMPK(A1/B1/G2) (Homo sapiens, UniProt Q13131); assay: Kinase panel assay (radiolabelled); type: biochemical; details: 30 μM compound, ATP 10 μM; duplicates Data 1/Data 2
T5 construct: purchased Reaction Biology Corp

[6] = molecular target: T6, AMPK(A1/B1/G2) (Homo sapiens, UniProt Q13131+Q9UGJ0+Q9Y478); assay: Kinase panel assay (radiolabelled); type: biochemical; details: 30 μM compound, ATP 10 μM; duplicates Data 1/Data 2; read-out: % Enzyme Activity (relative to DMSO controls)
T6 construct: purchased Reaction Biology Corp

[7] = molecular target: T7, P38b/MAPK11 (Homo sapiens, UniProt Q15759); assay: Kinase panel assay (radiolabelled); type: biochemical; details: ATP 10 μM
T7 construct: purchased Reaction Biology Corp

[8] = molecular target: T8, ARK5/NUAK1 (Homo sapiens, UniProt O60285); assay: Kinase panel assay (radiolabelled); type: biochemical; details: ATP 10 μM
T8 construct: purchased Reaction Biology Corp
T8 sequence (O60285 1-661): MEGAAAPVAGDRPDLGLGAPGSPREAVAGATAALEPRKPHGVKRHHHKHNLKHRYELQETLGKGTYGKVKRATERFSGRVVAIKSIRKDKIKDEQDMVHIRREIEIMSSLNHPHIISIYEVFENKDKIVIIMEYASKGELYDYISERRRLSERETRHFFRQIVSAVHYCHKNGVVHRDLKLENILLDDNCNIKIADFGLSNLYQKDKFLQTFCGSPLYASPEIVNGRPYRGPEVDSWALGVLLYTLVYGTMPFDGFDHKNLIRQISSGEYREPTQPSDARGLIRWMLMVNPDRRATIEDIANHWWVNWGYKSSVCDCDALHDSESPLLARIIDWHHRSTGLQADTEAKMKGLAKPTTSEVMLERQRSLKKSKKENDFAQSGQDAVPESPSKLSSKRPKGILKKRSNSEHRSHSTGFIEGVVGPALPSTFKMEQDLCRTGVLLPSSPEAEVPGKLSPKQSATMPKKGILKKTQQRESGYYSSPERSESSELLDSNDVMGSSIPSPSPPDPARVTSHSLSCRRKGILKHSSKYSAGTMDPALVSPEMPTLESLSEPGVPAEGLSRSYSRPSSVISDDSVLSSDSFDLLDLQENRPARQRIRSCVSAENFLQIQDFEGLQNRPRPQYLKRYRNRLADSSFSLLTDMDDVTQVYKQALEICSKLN

[9] = molecular target: T9, PDK1/PDHK1 (Homo sapiens, UniProt Q15118); assay: Kinase panel assay (radiolabelled); type: biochemical; details: 30 μM compound, ATP 10 μM, duplicates Data 1/Data 2
T9 construct: purchased Reaction Biology Corp
Method: (§1) Every inhibitory activity of tested compounds was measured by radiolabelled method of Reaction Biology Corp). The radiolabelled ATP ([γ-^33P] ATP) replaced a substrate with ^33P-phosphorylated substrate so that the activity of a kinase was measured from the radiolabelled phosphorylated substrate. Kinase panel assay was tested at 30 μM testing compounds with an ATP concentration of 10 μM and a substrate concentration of 10 μM. % Residual activity against GSK3β was measured at 10 uM compounds 1 and 2. […] Curve fits of control compounds were performed where the enzyme activities at the highest concentration of compounds were less than 65%. The concentration of DMSO was controlled and raw data, % kinase activity was calculated relative to DMSO controls.

[10] = molecular target: T10, PDK2/PDHK2 (Homo sapiens, UniProt Q15119); assay: Kinase panel assay (radiolabelled); type: biochemical; details: 30 μM compound, ATP 10 μM, duplicates Data 1/Data 2
T10 construct: purchased Reaction Biology Corp
Method: as §1

[11] = molecular target: T11, EIF2AK1 (Homo sapiens, UniProt Q9BQI3); assay: Kinase panel assay (radiolabelled); type: biochemical; details: 30 μM compound, ATP 10 μM, duplicates Data 1/Data 2
T11 construct: purchased Reaction Biology Corp
Method: as §1

[12] = molecular target: T12, TRPM7/CHAK1 (Homo sapiens, UniProt Q96QT4); assay: Kinase panel assay (radiolabelled); type: biochemical; details: 30 μM compound, ATP 10 μM, duplicates Data 1/Data 2
T12 construct: purchased Reaction Biology Corp
Method: as §1

[13] = molecular target: T13, PDK3/PDHK3 (Homo sapiens, UniProt Q15120); assay: Kinase panel assay (radiolabelled); type: biochemical; details: 30 μM compound, ATP 10 μM, duplicates Data 1/Data 2
T13 construct: purchased Reaction Biology Corp
Method: as §1

[14] = molecular target: T14, PDK4/PDHK4 (Homo sapiens, UniProt Q16654); assay: Kinase panel assay (radiolabelled); type: biochemical; details: 30 μM compound, ATP 10 μM, duplicates Data 1/Data 2
T14 construct: purchased Reaction Biology Corp
Method: as §1

[15] = molecular target: T15, EIF2AK4 (Homo sapiens, UniProt Q9P2K8); assay: Kinase panel assay (radiolabelled); type: biochemical; details: 30 μM compound, ATP 10 μM, duplicates Data 1/Data 2
T15 construct: purchased Reaction Biology Corp

[16] = read-out: % Enzyme Activity (relative to DMSO controls)
[17] = 30 μM compound, duplicates Data 1/Data 2
[18] = 30 μM compound, duplicates Data 1/Data 2, read-out: % Enzyme Activity (relative to DMSO controls)
[19] = 30 μM, average ± SD, read-out: % Residual Activity at 30 μM

T7 sequence (Q15759 whole entry): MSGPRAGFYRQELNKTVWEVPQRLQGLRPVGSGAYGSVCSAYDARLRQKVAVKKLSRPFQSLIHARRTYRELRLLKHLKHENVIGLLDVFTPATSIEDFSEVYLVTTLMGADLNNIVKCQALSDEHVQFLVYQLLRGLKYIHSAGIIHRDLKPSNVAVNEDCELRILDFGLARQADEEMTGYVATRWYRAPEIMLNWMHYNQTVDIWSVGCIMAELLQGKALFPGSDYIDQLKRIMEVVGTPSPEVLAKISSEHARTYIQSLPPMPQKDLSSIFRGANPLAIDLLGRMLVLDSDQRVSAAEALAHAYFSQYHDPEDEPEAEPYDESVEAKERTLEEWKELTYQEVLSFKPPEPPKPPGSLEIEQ
T13 sequence (Q15120 whole entry): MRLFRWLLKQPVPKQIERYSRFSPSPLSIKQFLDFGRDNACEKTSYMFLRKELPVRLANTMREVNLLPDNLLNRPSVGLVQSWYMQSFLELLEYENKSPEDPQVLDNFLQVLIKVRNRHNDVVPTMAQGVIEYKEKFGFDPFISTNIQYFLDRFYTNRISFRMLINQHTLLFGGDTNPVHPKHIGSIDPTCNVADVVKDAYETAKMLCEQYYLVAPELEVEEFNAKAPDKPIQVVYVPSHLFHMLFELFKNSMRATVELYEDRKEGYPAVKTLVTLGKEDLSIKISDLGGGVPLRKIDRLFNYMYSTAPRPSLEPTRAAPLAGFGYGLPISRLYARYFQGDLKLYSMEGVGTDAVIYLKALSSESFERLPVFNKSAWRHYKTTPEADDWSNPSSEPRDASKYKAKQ
T14 sequence (Q16654 whole entry): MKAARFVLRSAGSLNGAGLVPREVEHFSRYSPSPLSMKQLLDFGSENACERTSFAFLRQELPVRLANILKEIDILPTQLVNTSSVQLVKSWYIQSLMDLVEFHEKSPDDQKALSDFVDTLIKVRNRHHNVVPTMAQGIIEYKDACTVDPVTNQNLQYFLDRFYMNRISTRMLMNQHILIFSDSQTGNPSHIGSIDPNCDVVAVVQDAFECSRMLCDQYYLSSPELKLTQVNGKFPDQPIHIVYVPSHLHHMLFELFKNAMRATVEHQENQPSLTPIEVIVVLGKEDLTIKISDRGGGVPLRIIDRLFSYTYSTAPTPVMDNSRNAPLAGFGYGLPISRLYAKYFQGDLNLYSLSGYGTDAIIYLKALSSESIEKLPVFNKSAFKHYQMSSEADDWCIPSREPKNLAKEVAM
T15 sequence (Q9P2K8 whole entry): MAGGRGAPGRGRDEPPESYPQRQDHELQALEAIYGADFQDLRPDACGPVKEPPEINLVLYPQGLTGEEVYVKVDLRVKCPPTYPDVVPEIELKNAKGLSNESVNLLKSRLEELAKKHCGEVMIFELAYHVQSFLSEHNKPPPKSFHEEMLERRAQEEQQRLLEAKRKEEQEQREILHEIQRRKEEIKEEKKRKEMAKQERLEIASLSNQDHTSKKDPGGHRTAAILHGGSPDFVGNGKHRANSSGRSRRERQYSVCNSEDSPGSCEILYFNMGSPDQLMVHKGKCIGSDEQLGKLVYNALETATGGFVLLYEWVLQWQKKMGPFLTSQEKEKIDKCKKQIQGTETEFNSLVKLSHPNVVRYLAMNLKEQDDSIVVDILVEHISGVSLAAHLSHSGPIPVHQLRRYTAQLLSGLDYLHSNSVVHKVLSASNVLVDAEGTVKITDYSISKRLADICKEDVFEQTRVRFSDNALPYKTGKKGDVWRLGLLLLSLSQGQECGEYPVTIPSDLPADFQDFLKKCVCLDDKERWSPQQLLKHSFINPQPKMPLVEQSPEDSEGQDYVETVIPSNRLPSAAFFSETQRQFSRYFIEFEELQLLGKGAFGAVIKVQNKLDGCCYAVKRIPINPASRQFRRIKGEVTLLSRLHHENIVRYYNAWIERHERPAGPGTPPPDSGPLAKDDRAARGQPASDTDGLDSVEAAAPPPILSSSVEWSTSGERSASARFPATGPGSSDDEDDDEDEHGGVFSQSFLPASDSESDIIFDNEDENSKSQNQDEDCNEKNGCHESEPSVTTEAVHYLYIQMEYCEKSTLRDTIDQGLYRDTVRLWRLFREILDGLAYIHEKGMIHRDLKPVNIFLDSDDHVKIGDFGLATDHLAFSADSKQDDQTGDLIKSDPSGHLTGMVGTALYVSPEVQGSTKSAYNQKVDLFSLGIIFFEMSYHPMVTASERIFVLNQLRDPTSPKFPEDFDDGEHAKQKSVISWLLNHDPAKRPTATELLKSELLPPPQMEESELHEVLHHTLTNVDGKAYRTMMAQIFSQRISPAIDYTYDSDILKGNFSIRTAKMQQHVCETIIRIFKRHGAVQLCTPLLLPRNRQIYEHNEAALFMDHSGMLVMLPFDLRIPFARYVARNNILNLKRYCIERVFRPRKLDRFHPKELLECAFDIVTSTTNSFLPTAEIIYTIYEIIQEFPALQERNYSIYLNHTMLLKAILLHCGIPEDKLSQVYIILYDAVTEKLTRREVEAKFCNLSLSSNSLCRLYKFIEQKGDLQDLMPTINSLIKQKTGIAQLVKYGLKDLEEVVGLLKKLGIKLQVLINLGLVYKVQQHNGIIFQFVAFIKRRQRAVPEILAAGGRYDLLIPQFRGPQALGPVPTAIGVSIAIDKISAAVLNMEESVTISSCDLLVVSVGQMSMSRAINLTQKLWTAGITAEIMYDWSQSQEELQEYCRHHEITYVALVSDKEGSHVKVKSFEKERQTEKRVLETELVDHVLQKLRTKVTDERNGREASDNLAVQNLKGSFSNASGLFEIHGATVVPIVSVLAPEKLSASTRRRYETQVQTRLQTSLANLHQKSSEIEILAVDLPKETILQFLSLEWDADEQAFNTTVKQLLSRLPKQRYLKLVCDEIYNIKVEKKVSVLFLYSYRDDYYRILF
T12 sequence (Q96QT4 whole entry): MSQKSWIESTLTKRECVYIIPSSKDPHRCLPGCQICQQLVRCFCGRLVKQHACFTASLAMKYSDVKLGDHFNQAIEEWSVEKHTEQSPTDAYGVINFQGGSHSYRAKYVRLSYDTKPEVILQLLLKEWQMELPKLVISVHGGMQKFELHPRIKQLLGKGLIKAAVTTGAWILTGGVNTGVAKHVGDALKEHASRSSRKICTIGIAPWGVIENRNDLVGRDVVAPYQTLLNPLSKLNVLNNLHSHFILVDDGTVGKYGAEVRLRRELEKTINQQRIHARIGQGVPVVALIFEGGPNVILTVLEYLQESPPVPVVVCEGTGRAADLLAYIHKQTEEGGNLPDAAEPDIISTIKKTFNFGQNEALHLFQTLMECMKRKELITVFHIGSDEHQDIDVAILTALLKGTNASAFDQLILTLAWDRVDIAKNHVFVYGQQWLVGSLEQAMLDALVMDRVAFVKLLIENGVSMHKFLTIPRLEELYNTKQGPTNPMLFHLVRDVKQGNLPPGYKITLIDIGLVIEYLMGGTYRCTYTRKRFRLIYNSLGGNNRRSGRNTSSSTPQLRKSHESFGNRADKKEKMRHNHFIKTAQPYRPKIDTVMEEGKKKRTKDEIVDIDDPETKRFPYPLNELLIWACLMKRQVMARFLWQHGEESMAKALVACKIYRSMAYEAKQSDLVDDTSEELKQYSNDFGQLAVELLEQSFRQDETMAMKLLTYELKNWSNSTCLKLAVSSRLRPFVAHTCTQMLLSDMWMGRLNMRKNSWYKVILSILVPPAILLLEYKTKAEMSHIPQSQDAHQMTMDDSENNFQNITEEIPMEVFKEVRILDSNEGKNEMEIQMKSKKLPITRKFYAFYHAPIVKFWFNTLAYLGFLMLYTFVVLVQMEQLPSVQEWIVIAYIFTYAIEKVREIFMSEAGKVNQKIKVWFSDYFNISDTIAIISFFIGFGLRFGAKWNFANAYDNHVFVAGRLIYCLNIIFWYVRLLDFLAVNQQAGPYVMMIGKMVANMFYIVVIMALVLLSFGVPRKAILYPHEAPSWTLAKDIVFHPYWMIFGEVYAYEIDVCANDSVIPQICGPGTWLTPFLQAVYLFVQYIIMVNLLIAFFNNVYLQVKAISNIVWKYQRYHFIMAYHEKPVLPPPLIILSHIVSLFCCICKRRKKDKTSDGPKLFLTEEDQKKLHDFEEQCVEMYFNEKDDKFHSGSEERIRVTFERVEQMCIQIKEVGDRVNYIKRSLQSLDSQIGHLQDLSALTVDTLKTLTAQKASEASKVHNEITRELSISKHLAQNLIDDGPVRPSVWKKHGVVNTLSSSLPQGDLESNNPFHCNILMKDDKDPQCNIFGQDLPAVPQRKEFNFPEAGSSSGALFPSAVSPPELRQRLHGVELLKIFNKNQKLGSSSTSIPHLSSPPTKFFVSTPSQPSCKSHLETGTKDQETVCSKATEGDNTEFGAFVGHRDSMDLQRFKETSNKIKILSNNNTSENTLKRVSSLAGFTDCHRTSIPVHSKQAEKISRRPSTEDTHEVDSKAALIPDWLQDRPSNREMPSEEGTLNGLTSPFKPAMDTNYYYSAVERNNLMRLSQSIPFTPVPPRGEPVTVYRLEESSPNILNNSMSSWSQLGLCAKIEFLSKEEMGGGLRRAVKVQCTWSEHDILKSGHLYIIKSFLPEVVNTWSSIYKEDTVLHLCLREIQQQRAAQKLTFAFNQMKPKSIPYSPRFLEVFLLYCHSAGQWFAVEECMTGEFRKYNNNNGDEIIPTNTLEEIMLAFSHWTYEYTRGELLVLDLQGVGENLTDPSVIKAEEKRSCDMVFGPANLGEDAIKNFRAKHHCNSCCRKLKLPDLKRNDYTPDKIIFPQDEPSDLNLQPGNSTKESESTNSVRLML
T9 sequence (Q15118 29-436): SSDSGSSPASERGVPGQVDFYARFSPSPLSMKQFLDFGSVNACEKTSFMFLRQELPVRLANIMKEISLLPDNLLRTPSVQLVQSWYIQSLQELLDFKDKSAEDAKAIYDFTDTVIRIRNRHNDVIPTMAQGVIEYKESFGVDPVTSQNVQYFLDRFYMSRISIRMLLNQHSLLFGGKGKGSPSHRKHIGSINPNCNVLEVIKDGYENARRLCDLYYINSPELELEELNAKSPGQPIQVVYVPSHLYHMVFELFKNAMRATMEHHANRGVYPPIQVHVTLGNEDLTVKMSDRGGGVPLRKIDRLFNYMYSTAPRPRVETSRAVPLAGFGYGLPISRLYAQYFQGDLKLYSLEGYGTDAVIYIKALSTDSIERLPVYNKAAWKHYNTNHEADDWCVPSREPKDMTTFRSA

## O=C1C=CC2(C=C1)OCC(Cc1cc(C(F)(F)F)cc(C(F)(F)F)c1)C(=O)N2c1ccccc1 (racemic) [1c]
[1]
  % Residual Activity at 30 μM: 98.3 ± 0.1%

## O=C1C=CC2(C=C1)OCC(Cc1cn(-c3cccc(Cl)c3)nn1)C(=O)N2c1ccccc1 (stereo not drawn) [2d, 3-((1-(3-Chlorophenyl)-1H-1,2,3-triazol-4-yl)methyl)-5-phenyl-1-oxa-5-azaspiro[5.5]undeca-7,10-diene-4,9-dione]
[2]
  % Enzyme Activity (relative to DMSO controls): 131.08%
[2]; [16]
  remaining activity at 30 µM: 132%
[3]
  % Enzyme Activity (relative to DMSO controls): 108.46%
[3]; [16]
  remaining activity at 30 µM: 109%
[4]; [17]
  % Enzyme Activity (relative to DMSO controls): 70.31%
[4]; [18]
  remaining activity at 30 µM: 71.6%
[4]; [19]
  remaining activity at 30 µM: 70.9 ± 0.9%
[5]
  % Enzyme Activity (relative to DMSO controls): 66.48%
[6]
  remaining activity at 30 µM: 68%
[7]; [17]
  % Enzyme Activity (relative to DMSO controls): 109.52%
[7]; [18]
  remaining activity at 30 µM: 110%
[7]; [19]
  remaining activity at 30 µM: 109.9 ± 0.5%
[8]; [17]
  % Enzyme Activity (relative to DMSO controls): 84.16%
[8]; [18]
  remaining activity at 30 µM: 93.6%
[8]; [19]
  remaining activity at 30 µM: 88.9 ± 6.7%
[9]
  % Enzyme Activity (relative to DMSO controls): 85.01%
[9]; [16]
  remaining activity at 30 µM: 85.6%
[10]
  % Enzyme Activity (relative to DMSO controls): 63.30%
[10]; [16]
  remaining activity at 30 µM: 64.3%
[11]
  % Enzyme Activity (relative to DMSO controls): 87.95%
[11]; [16]
  remaining activity at 30 µM: 91.7%
[12]
  % Enzyme Activity (relative to DMSO controls): 63.76%
[12]; [16]
  remaining activity at 30 µM: 67.5%
[13]
  % Enzyme Activity (relative to DMSO controls): 82.28%
[13]; [16]
  remaining activity at 30 µM: 85.9%
[14]
  % Enzyme Activity (relative to DMSO controls): 105.05%
[14]; [16]
  remaining activity at 30 µM: 111%
[15]
  % Enzyme Activity (relative to DMSO controls): 102.49%
[15]; [16]
  remaining activity at 30 µM: 104%
